Experimental data from patent publication US20230285340A1, “NEPRILYSIN INHIBITORS” (THERAVANCE BIOPHARMA R&D IP, LLC, priority 2011, published 2023).

Biological target: human NEP (Homo sapiens (Human), UniProt P08473)
Assay: In vitro enzyme inhibition assay at human NEP (Assay 1)
Type: biochemical

Row | SMILES | pKi (comparative examples, exact values) | pKi (reported as ranges)
1 | C[C@H](C[C@@H](Cc1ccc(-c2ccccc2)cc1)NC(=O)C(=O)O)C(=O)O [Comparative Compound A, (2R,4S)-5-Biphenyl-4-yl-2-methyl-4-(oxalyl-amino)-pentanoic Acid, reference compound] | 8.2 | –
2 | CCOC(=O)C(=O)N[C@H](Cc1ccc(-c2cc(Cl)ccc2F)cc1)C[C@@H](O)C(=O)O [Example 5-14, (2R,4R)-5-(5′-Chloro-2′-fluorobiphenyl-4-yl)-4-(ethoxyoxalylamino)-2-hydroxy-pentanoic acid] | – | ≥9
3 | CCOC(=O)[C@H](O)C[C@@H](Cc1ccc(-c2cccc(Cl)c2)cc1Cl)NC(=O)C(=O)O [Example 5-17, (2R,4R)-5-(3,3′-Dichlorobiphenyl-4-yl)-2-hydroxy-4-(oxalylamino)pentanoic acid ethyl ester] | – | ≥9
4 | C[C@@](CO)(C[C@@H](Cc1ccc(-c2ccc(F)cc2)cc1)NC(=O)C(=O)O)C(=O)O [Example 11-3, (2S,4R)-5-(4′-Fluorobiphenyl-4-yl)-2-hydroxymethyl-2-methyl-4-(oxalylamino)pentanoic acid] | – | 7.0-7.9
5 | C[C@@](CO)(C[C@@H](Cc1ccc(-c2ccccc2F)cc1)NC(=O)C(=O)O)C(=O)O [Example 11-1, (2S,4R)-5-(2′-Fluorobiphenyl-4-yl)-2-hydroxymethyl-2-methyl-4-(oxalylamino)pentanoic acid] | – | 8.0-8.9
6 | O=C(O)C(=O)N[C@H](Cc1ccc(-c2cc(Cl)ccc2F)cc1)C[C@@H](O)C(=O)O [Example 5-5, (2R,4R)-5-(5′-Chloro-2′-fluorobiphenyl-4-yl)-2-hydroxy-4-(oxalylamino)pentanoic acid] | – | ≥9
7 | Cc1ccc(Cl)cc1-c1ccc(C[C@H](C[C@@H](O)C(=O)O)NC(=O)C(=O)O)cc1 [Example 5-1, (2R,4R)-5-(5′-Chloro-2′-methylbiphenyl-4-yl)-2-hydroxy-4-(oxalylamino)-pentanoic acid] | – | ≥9
8 | O=C(O)C(=O)N[C@H](Cc1ccc(-c2cccc(Cl)c2)cc1Cl)C[C@@H](O)C(=O)O [Example 5-9, (2R,4R)-5-(3,3′-Dichlorobiphenyl-4-yl)-2-hydroxy-4-(oxalylamino)pentanoic acid] | – | ≥9
9 | CC(C)COC(=O)C(=O)N[C@H](Cc1ccc(-c2cccc(Cl)c2)cc1)C[C@@](C)(CO)C(=O)O [Example 11-4, (2S,4R)-5-(3′-Chlorobiphenyl-4-yl)-2-hydroxymethyl-4-(isobutoxyoxalyl-amino)-2-methylpentanoic acid] | – | 8.0-8.9
10 | O=C(O)C(=O)NN(Cc1ccc(-c2cc(Cl)ccc2F)cc1Cl)C[C@@H](O)C(=O)O [Example 5-13, (R)-3-[N-(3,5′-Dichloro-2′-fluorobiphenyl-4-ylmethyl)-N′-oxalyl-hydrazino]-2-hydroxypropionic acid] | – | ≥9
11 | CC(C)OC(=O)C(=O)N[C@H](Cc1ccc(-c2cc(Cl)ccc2F)cc1)C[C@@H](O)C(=O)O [Example 5-15, (2R,4R)-5-(5′-Chloro-2′-fluorobiphenyl-4-yl)-2-hydroxy-4-(isopropoxyoxalyl-amino)-pentanoic acid] | – | ≥9
12 | C[C@@](CO)(C[C@@H](Cc1ccc(-c2cc(Cl)ccc2F)cc1)NC(=O)C(=O)O)C(=O)O [Example 11-2, (2S,4R)-5-(5′-Chloro-2′-fluorobiphenyl-4-yl)-2-hydroxymethyl-2-methyl-4-(oxalyl-amino)pentanoic acid] | – | ≥9
